± gives the standard deviation of the averaged measurements.
Experiment: TIMS collisional cross section (CCS, N2) of the lipid ion; higher = larger ion cross section
Details: ionization mode: positive, one isomer drawn

| SMILES | TIMS collisional cross section (sample type: plasma) [Å²] | TIMS collisional cross section (sample type: HeLa) [Å²] | TIMS collisional cross section (sample type: Liver) [Å²] |
| --- | --- | --- | --- |
| CC/C=C\C/C=C\C/C=C\C/C=C\C/C=C\C/C=C\CCC(=O)O[C@H](COC(=O)CCCCCCCCCCCCCCC)COP(=O)(O)OCCN [PE 16:0@_22:6] (ion (formula + adduct): [C43H74NO8P+H] 1+) | 279.1 | – | – |
| CCCCCCCCCCCCCCCC(=O)OC[C@H](COP(=O)(O)OCCN)OC(=O)CCCCCCCCCCCCC [PE 16:0_14:0@] (ion (formula + adduct): [C35H70NO8P+H] 1+) | – | 267.4 | – |
| CCCCCCCC/C=C\CCCCCCCC(=O)O[C@H](COC(=O)CCCCCCCCCCCCCCC)COP(=O)(O)OCCN [PE 16:0_18:1] (ion (formula + adduct): [C39H76NO8P+H] 1+) | – | 275.3 | – |
| CCCCC/C=C\C/C=C\CCCCCCCC(=O)O[C@H](COC(=O)CCCCCCCCCCCCCCC)COP(=O)(O)OCCN [PE 16:0_18:2] (ion (formula + adduct): [C39H74NO8P+H] 1+) | 273 | – | 272.9 |
| CC/C=C\C/C=C\C/C=C\CCCCCCCC(=O)O[C@H](COC(=O)CCCCCCCCCCCCCCC)COP(=O)(O)OCCN [PE 16:0_18:3@] (ion (formula + adduct): [C39H72NO8P+H] 1+) | – | – | 269.9 |
| CCCCC/C=C\C/C=C\C/C=C\C/C=C\CCCC(=O)O[C@H](COC(=O)CCCCCCCCCCCCCCC)COP(=O)(O)OCCN [PE 16:0_20:4] (ion (formula + adduct): [C41H74NO8P+H] 1+) | – | 276.1 ± 1.1 | 277.25 ± 0.49 |
| CC/C=C\C/C=C\C/C=C\C/C=C\C/C=C\C/C=C\CCC(=O)O[C@H](COC(=O)CCCCCCCCCCCCCCC)COP(=O)(O)OCCN [PE 16:0_22:6@] (ion (formula + adduct): [C43H74NO8P+H] 1+) | – | – | 280.9 |
| CC/C=C\C/C=C\C/C=C\C/C=C\C/C=C\C/C=C\CCC(=O)O[C@H](COC(=O)CCCCCCCCCCCCCCC)COP(=O)(O)OCCN [PE 16:0_22:6] (ion (formula + adduct): [C43H74NO8P+H] 1+) | – | 278.6 | – |
| CCCCCC/C=C\CCCCCCCC(=O)OC[C@H](COP(=O)(O)OCCN)OC(=O)CCCCCCCCCCCCCCC [PE 16:1@_16:0] (ion (formula + adduct): [C37H72NO8P+H] 1+) | – | – | 268.7 |
| CCCCC/C=C\C/C=C\C/C=C\CCCCC(=O)O[C@H](COC(=O)CCCCCCC/C=C\CCCCCC)COP(=O)(O)OCCN [PE 16:1@_18:3] (ion (formula + adduct): [C39H70NO8P+H] 1+) | – | – | 266 |
| CCCCCC/C=C\CCCCCCCC(=O)OC[C@H](COP(=O)(O)OCCN)OC(=O)CCCCCCCCCCCCC [PE 16:1_14:0] (ion (formula + adduct): [C35H68NO8P+H] 1+) | – | 262 | – |
| CCCCCC/C=C\CCCCCCCC(=O)OC[C@H](COP(=O)(O)OCCN)OC(=O)CCCCCCCCCCCCCCC [PE 16:1_16:0] (ion (formula + adduct): [C37H72NO8P+H] 1+) | – | 268.7 | – |
| CCCCCC/C=C\CCCCCCCC(=O)OC[C@H](COP(=O)(O)OCCN)OC(=O)CCCCCCC/C=C\CCCCCC [PE 16:1_16:1] (ion (formula + adduct): [C37H70NO8P+Na] 1+) | – | 266.4 | – |
| CCCCCC/C=C\CCCCCCCC(=O)OC[C@H](COP(=O)(O)OCCN)OC(=O)CCCCCCC/C=C\CCCCCCC [PE 16:1_17:1@] (ion (formula + adduct): [C38H72NO8P+H] 1+) | – | 268.3 | – |
| CC/C=C\C/C=C\C/C=C\C/C=C\C/C=C\CCCC(=O)O[C@H](COC(=O)CCCCCCC/C=C\CCCCCC)COP(=O)(O)OCCN [PE 16:1_20:5@] (ion (formula + adduct): [C41H70NO8P+H] 1+) | – | 269.8 | 269.8 |
| CCCCC/C=C\C/C=C\C/C=C\C/C=C\CCCC(=O)O[C@H](COC(=O)CCCCCCCCCCCCCCCC)COP(=O)(O)OCCN [PE 17:0_20:4@] (ion (formula + adduct): [C42H76NO8P+H] 1+) | – | 280.4 | 280.35 ± 0.071 |
| CCCCC/C=C\C/C=C\C/C=C\C/C=C\CCCC(=O)O[C@H](COC(=O)CCCCCCC/C=C\CCCCCCC)COP(=O)(O)OCCN [PE 17:1_20:4] (ion (formula + adduct): [C42H74NO8P+H] 1+) | – | – | 275.6 |
| CCCCCCCCCCCCCCCCCC(=O)OC[C@H](COP(=O)(O)OCCN)OC(=O)CCCCCCCCCCCCCCC [PE 18:0@_16:0] (ion (formula + adduct): [C39H78NO8P+H] 1+) | – | 280.3 | – |

| SMILES | TIMS collisional cross section (sample type: plasma) [Å²] | TIMS collisional cross section (sample type: HeLa) [Å²] | TIMS collisional cross section (sample type: Liver) [Å²] |
| --- | --- | --- | --- |
| CCCCCCCC/C=C\CCCCCCCC(=O)O[C@H](COC(=O)CCCCCCCCCCCCCCCCC)COP(=O)(O)OCCN [PE 18:0@_18:1] (ion (formula + adduct): [C41H80NO8P+H] 1+) | 282.1 | – | 282.2 |
| CCCCC/C=C\C/C=C\C/C=C\CCCCC(=O)O[C@H](COC(=O)CCCCCCCCCCCCCCCCC)COP(=O)(O)OCCN [PE 18:0@_18:3] (ion (formula + adduct): [C41H76NO8P+H] 1+) | 279 | – | – |
| CCCCCCCCCCCCCCCCCC(=O)OC[C@H](COP(=O)(O)OCCN)OC(=O)CCCCCCCCCCCCCCCCC [PE 18:0_18:0] (ion (formula + adduct): [C41H82NO8P+Na] 1+) | – | 286.4 | 286.2 |
| CCCCCCCC/C=C\CCCCCCCC(=O)O[C@H](COC(=O)CCCCCCCCCCCCCCCCC)COP(=O)(O)OCCN [PE 18:0_18:1] (ion (formula + adduct): [C41H80NO8P+H] 1+) | – | 282.2 | – |
| CCCCC/C=C\C/C=C\CCCCCCCC(=O)O[C@H](COC(=O)CCCCCCCCCCCCCCCCC)COP(=O)(O)OCCN [PE 18:0_18:2] (ion (formula + adduct): [C41H78NO8P+H] 1+) | 279.8 | – | 279.7 |
| CCCCC/C=C\C/C=C\C/C=C\CCCCC(=O)O[C@H](COC(=O)CCCCCCCCCCCCCCCCC)COP(=O)(O)OCCN [PE 18:0_18:3@] (ion (formula + adduct): [C41H76NO8P+H] 1+) | – | – | 278.7 |
| CCCCCCCC/C=C\CCCCCCCCCC(=O)O[C@H](COC(=O)CCCCCCCCCCCCCCCCC)COP(=O)(O)OCCN [PE 18:0_20:1] (ion (formula + adduct): [C43H84NO8P+H] 1+) | – | – | 289.3 |
| CCCCC/C=C\C/C=C\C/C=C\C/C=C\CCCC(=O)O[C@H](COC(=O)CCCCCCCCCCCCCCCCC)COP(=O)(O)OCCN [PE 18:0_20:4@] (ion (formula + adduct): [C43H78NO8P+H] 1+) | – | 284.1 | 283.9 ± 0.37 |
| CCCCC/C=C\C/C=C\C/C=C\C/C=C\CCCC(=O)O[C@H](COC(=O)CCCCCCCCCCCCCCCCC)COP(=O)(O)OCCN [PE 18:0_20:4] (ion (formula + adduct): [C43H78NO8P+H] 1+) | 283.5 | – | 284.15 ± 0.49 |
| CC/C=C\C/C=C\C/C=C\C/C=C\C/C=C\C/C=C\CCC(=O)O[C@H](COC(=O)CCCCCCCCCCCCCCCCC)COP(=O)(O)OCCN [PE 18:0_22:6] (ion (formula + adduct): [C45H78NO8P+H] 1+) | – | 285.5 | 285.6 |
| CCCCCCCC/C=C\CCCCCCCCCC(=O)O[C@H](COC(=O)CCCCCCC/C=C\CCCCCCCC)COP(=O)(O)OCCN [PE 18:1@_20:1] (ion (formula + adduct): [C43H82NO8P+H] 1+) | – | 286.2 | – |
| CCCCC/C=C\C/C=C\CCCCCCCCCC(=O)O[C@H](COC(=O)CCCCCCC/C=C\CCCCCCCC)COP(=O)(O)OCCN [PE 18:1@_20:2] (ion (formula + adduct): [C43H80NO8P+H] 1+) | – | – | 283.3 |
| CCCCCCCC/C=C\CCCCCCCC(=O)OC[C@H](COP(=O)(O)OCCN)OC(=O)CCCCCCCCCCCCCCCC [PE 18:1_17:0@] (ion (formula + adduct): [C40H78NO8P+H] 1+) | – | 279 | – |
| CCCCCCCC/C=C/CCCCCCCC(=O)OC[C@H](COP(=O)(O)OCCN)OC(=O)CCCCCCC/C=C/CCCCCCCC [PE 18:1_18:1] (ion (formula + adduct): [C41H78NO8P+H] 1+) | – | 279.2 ± 0.71 | – |
| CCCCCCCC/C=C/CCCCCCCC(=O)OC[C@H](COP(=O)(O)OCCN)OC(=O)CCCCCCC/C=C/CCCCCCCC [PE 18:1_18:1] (ion (formula + adduct): [C41H78NO8P+Na] 1+) | 280.6 | 279.7 | – |
| CCCCCCCC/C=C\CCCCCCCC(=O)OC[C@H](COP(=O)(O)OCCN(C)C)OC(=O)CCCCCCC/C=C\CCCCCCCC [PE 18:1_18:1] (ion (formula + adduct): [C43H82NO8P+Na] 1+) | – | – | 290.8 |
| CCCCC/C=C\C/C=C\CCCCCCCC(=O)O[C@H](COC(=O)CCCCCCC/C=C\CCCCCCCC)COP(=O)(O)OCCN [PE 18:1_18:2@] (ion (formula + adduct): [C41H76NO8P+H] 1+) | 275.8 | 277.9 | – |
